In PubChem BioAssay AID2060499 (Molecular Pharmacology Branch, DTP, NCI, 2025):

System: 777334-354-R2-J4-PDC tumor spheroids with HUVEC/MSC, viability
Experiment: Anticancer human tumor 777334-354-R2-J4-PDC patient-derived pancreatic adenocarcinoma cell line growth inhibition [GQUAD]
Conditions: for IC50: curve of first compound; for viability, T/C: stronger effect = lower value
In short: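 Tumor cells were grown as complex spheroids with HUVEC endothelial cells and mesenchymal stem cells as stroma. G-quadruplex stabilizers were combined with targeted agents over half-log dilutions from near the clinical Cmax, or from 10 microM.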

[1] = second compound 0.0316 µM, first compound 0.0316 µM
[2] = second compound 0.0316 µM, first compound 0.1 µM
[3] = second compound 0.0316 µM, first compound 0.316 µM
[4] = second compound 0.0316 µM, first compound 1 µM
[5] = second compound 0.0316 µM, first compound 3.16 µM
[6] = second compound 0.0316 µM, first compound 10 µM
[7] = second compound 0.1 µM, first compound 0.0316 µM
[8] = second compound 0.1 µM, first compound 0.1 µM
[9] = second compound 0.1 µM, first compound 0.316 µM
[10] = second compound 0.1 µM, first compound 1 µM
[11] = second compound 0.1 µM, first compound 3.16 µM
[12] = second compound 0.1 µM, first compound 10 µM
[13] = second compound 0.316 µM, first compound 0.0316 µM
[14] = second compound 0.316 µM, first compound 0.1 µM
[15] = second compound 0.316 µM, first compound 0.316 µM
[16] = second compound 0.316 µM, first compound 1 µM
[17] = second compound 0.316 µM, first compound 3.16 µM
[18] = second compound 0.316 µM, first compound 10 µM
[19] = second compound 1 µM, first compound 0.0316 µM
[20] = second compound 1 µM, first compound 0.1 µM
[21] = second compound 1 µM, first compound 0.316 µM
[22] = second compound 1 µM, first compound 1 µM
[23] = second compound 1 µM, first compound 3.16 µM
[24] = second compound 1 µM, first compound 10 µM
[25] = second compound 3.16 µM, first compound 0.0316 µM
[26] = second compound 3.16 µM, first compound 0.1 µM
[27] = second compound 3.16 µM, first compound 0.316 µM
[28] = second compound 3.16 µM, first compound 1 µM
[29] = second compound 3.16 µM, first compound 3.16 µM
[30] = second compound 3.16 µM, first compound 10 µM
[31] = second compound 10 µM, first compound 0.0316 µM
[32] = second compound 10 µM, first compound 0.1 µM
[33] = second compound 10 µM, first compound 0.316 µM
[34] = second compound 10 µM, first compound 1 µM
[35] = second compound 10 µM, first compound 3.16 µM
[36] = second compound 10 µM, first compound 10 µM
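Further: spheroids exposed to compounds for 7 days before readout.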

## COc1cccc2c1C(=O)c1c(O)c3c(c(O)c1C2=O)CC(O)(C(=O)CO)CC3OC1CC(N)C(O)C(C)O1 (stereo not drawn) + Cc1[nH]c2ccc(F)cc2c1-c1nc2c3cccnc3c3ncccc3c2[nH]1
Second compound 0.0316 µM
  IC50: 915 nM
Second compound 0.1 µM
  IC50: 878 nM
Second compound 0.316 µM
  IC50: 923 nM
Second compound 1 µM
  IC50: 646 nM
Second compound 3.16 µM
  IC50: < 31.6 nM
Second compound 10 µM
  IC50: < 31.6 nM
[1]
  viability, T/C: 102%
[2]
  viability, T/C: 83.2%
[3]
  viability, T/C: 80.3%
[4]
  viability, T/C: 47.1%
[5]
  viability, T/C: 22.8%
[6]
  viability, T/C: 15%
[7]
  viability, T/C: 93.3%
[8]
  viability, T/C: 80.5%
[9]
  viability, T/C: 69.6%
[10]
  viability, T/C: 49.2%
[11]
  viability, T/C: 25.2%
[12]
  viability, T/C: 14.9%
[13]
  viability, T/C: 74.8%
[14]
  viability, T/C: 82.6%
[15]
  viability, T/C: 71.2%
[16]
  viability, T/C: 46.8%
[17]
  viability, T/C: 28.4%
[18]
  viability, T/C: 17.4%
[19]
  viability, T/C: 74.8%
[20]
  viability, T/C: 75.8%
[21]
  viability, T/C: 61.1%
[22]
  viability, T/C: 42.9%
[23]
  viability, T/C: 22.5%
[24]
  viability, T/C: 13.6%
[25]
  viability, T/C: 40.4%
[26]
  viability, T/C: 27.8%
[27]
  viability, T/C: 24.8%
[28]
  viability, T/C: 16.7%
[29]
  viability, T/C: 13.9%
[30]
  viability, T/C: 9.55%
[31]
  viability, T/C: 32%
[32]
  viability, T/C: 23%
[33]
  viability, T/C: 22.6%
[34]
  viability, T/C: 16.5%
[35]
  viability, T/C: 14.9%
[36]
  viability, T/C: 10.9%

## CC1COCCN1c1cc(C2(O)CC3CCC(C2)O3)c2cnn(-c3ccn[nH]3)c2n1 (stereo not drawn) + CN(C)c1ccc(Nc2c3ccc(NC(=O)CCN4CCCC4)cc3nc3cc(NC(=O)CCN4CCCC4)ccc23)cc1
Second compound 0.0316 µM
  IC50: 599 nM
Second compound 0.1 µM
  IC50: 644 nM
Second compound 0.316 µM
  IC50: 599 nM
Second compound 1 µM
  IC50: 348 nM
Second compound 3.16 µM
  IC50: 296 nM
Second compound 10 µM
  IC50: 189 nM
[1]
  viability, T/C: 96.5%
[2]
  viability, T/C: 79.1%
[3]
  viability, T/C: 59.8%
[4]
  viability, T/C: 40.5%
[5]
  viability, T/C: 32%
[6]
  viability, T/C: 20.4%
[7]
  viability, T/C: 105%
[8]
  viability, T/C: 80.3%
[9]
  viability, T/C: 58.8%
[10]
  viability, T/C: 43.3%
[11]
  viability, T/C: 33.9%
[12]
  viability, T/C: 20%
[13]
  viability, T/C: 96.3%
[14]
  viability, T/C: 75.4%
[15]
  viability, T/C: 53.2%
[16]
  viability, T/C: 45.8%
[17]
  viability, T/C: 33.4%
[18]
  viability, T/C: 19%
[19]
  viability, T/C: 83%
[20]
  viability, T/C: 63%
[21]
  viability, T/C: 53%
[22]
  viability, T/C: 36%
[23]
  viability, T/C: 31.4%
[24]
  viability, T/C: 19.1%
[25]
  viability, T/C: 87.9%
[26]
  viability, T/C: 68.8%
[27]
  viability, T/C: 46.7%
[28]
  viability, T/C: 34.7%
[29]
  viability, T/C: 26.9%
[30]
  viability, T/C: 16.5%
[31]
  viability, T/C: 74.7%
[32]
  viability, T/C: 56.1%
[33]
  viability, T/C: 45.8%
[34]
  viability, T/C: 29.7%
[35]
  viability, T/C: 25.5%
[36]
  viability, T/C: 16%

## CCCS(=O)(=O)Nc1ccc(F)c(C(=O)c2c[nH]c3ncc(-c4ccc(Cl)cc4)cc23)c1F + Cc1[nH]c2ccc(F)cc2c1-c1nc2c3cccnc3c3ncccc3c2[nH]1
Second compound 0.0316 µM
  IC50: 7750 nM
Second compound 0.1 µM
  IC50: 8350 nM
Second compound 0.316 µM
  IC50: 7780 nM
Second compound 1 µM
  IC50: 7020 nM
Second compound 3.16 µM
  IC50: < 31.6 nM
Second compound 10 µM
  IC50: < 31.6 nM
[1]
  viability, T/C: 108%
[2]
  viability, T/C: 108%
[3]
  viability, T/C: 114%
[4]
  viability, T/C: 111%
[5]
  viability, T/C: 124%
[6]
  viability, T/C: 32%
[7]
  viability, T/C: 111%
[8]
  viability, T/C: 104%
[9]
  viability, T/C: 109%
[10]
  viability, T/C: 122%
[11]
  viability, T/C: 130%
[12]
  viability, T/C: 38%
[13]
  viability, T/C: 94.7%
[14]
  viability, T/C: 102%
[15]
  viability, T/C: 96.2%
[16]
  viability, T/C: 126%
[17]
  viability, T/C: 117%
[18]
  viability, T/C: 33.9%
[19]
  viability, T/C: 79.8%
[20]
  viability, T/C: 99.4%
[21]
  viability, T/C: 92.4%
[22]
  viability, T/C: 109%
[23]
  viability, T/C: 111%
[24]
  viability, T/C: 28.5%
[25]
  viability, T/C: 50.2%
[26]
  viability, T/C: 46.1%
[27]
  viability, T/C: 33.2%
[28]
  viability, T/C: 30.6%
[29]
  viability, T/C: 38.5%
[30]
  viability, T/C: 13.8%
[31]
  viability, T/C: 44.3%
[32]
  viability, T/C: 31.9%
[33]
  viability, T/C: 43.8%
[34]
  viability, T/C: 28.8%
[35]
  viability, T/C: 28.4%
[36]
  viability, T/C: 15.8%

## COc1ccc([C@@H](O)c2cc(-c3ncnc4cc(N5CCOCC5)ccc34)c(F)cc2Cl)nn1 + Cc1cnc(CNC(=O)c2c(=O)c3ccc(N4CCCN(C)CC4)nc3n3c2sc2ccccc23)cn1
Second compound 0.0316 µM
  IC50: 2990 nM
Second compound 0.1 µM
  IC50: 1610 nM
Second compound 0.316 µM
  IC50: 2100 nM
Second compound 1 µM
  IC50: 1490 nM
Second compound 3.16 µM
  IC50: 955 nM
Second compound 10 µM
  IC50: 662 nM
[1]
  viability, T/C: 101%
[2]
  viability, T/C: 94.4%
[3]
  viability, T/C: 101%
[4]
  viability, T/C: 72.1%
[5]
  viability, T/C: 51%
[6]
  viability, T/C: 24.6%
[7]
  viability, T/C: 102%
[8]
  viability, T/C: 84.4%
[9]
  viability, T/C: 69.9%
[10]
  viability, T/C: 57.9%
[11]
  viability, T/C: 42.8%
[12]
  viability, T/C: 23.2%
[13]
  viability, T/C: 93.9%
[14]
  viability, T/C: 89.3%
[15]
  viability, T/C: 75.8%
[16]
  viability, T/C: 64.8%
[17]
  viability, T/C: 42%
[18]
  viability, T/C: 20.1%
[19]
  viability, T/C: 76.2%
[20]
  viability, T/C: 84.1%
[21]
  viability, T/C: 69.5%
[22]
  viability, T/C: 57.7%
[23]
  viability, T/C: 36.3%
[24]
  viability, T/C: 19.2%
[25]
  viability, T/C: 61.1%
[26]
  viability, T/C: 64.9%
[27]
  viability, T/C: 63.1%
[28]
  viability, T/C: 45.6%
[29]
  viability, T/C: 34.9%
[30]
  viability, T/C: 17.1%
[31]
  viability, T/C: 58.4%
[32]
  viability, T/C: 61%
[33]
  viability, T/C: 52.5%
[34]
  viability, T/C: 48.5%
[35]
  viability, T/C: 28.6%
[36]
  viability, T/C: 15.6%
